Assay results from PMC9144902, “Metal(II) Complexes of the Fluoroquinolone Fleroxacin: Synthesis, Characterization and Biological Profile” (Pharmaceutics, 2022).

What was measured:
EB–DNA adduct (CT DNA) = test: Competitive study with EB (EB–DNA fluorescence quenching); assay type: binding, calf; details: for Ksv, Stern–Volmer constant: EB–DNA adduct; for ΔI/Io, percentage of EB–DNA fluorescence quenching: [EB] = 20 μM, [DNA] = 26 μM, λexc 540 nm, λem 592 nm; for EB–DNA relative fluorescence emission intensity, % of the initial (I/Io): λemission = 592 nm, final value (up to), Figure S14; for kq, EB–DNA quenching constant: τo = 23 ns
Protocol: Ethidium bromide is a typical marker of intercalation because it can intercalate between adjacent DNA bases with its planar phenanthridine ring.
The fluorescence emission spectra of the EB–DNA adduct ([EB] = 20 μM, [DNA] = 26 μM) in the absence and presence of the compounds were recorded at increasing amounts of the respective compounds. […] As a conclusion, an intercalative interaction of the complexes with CT DNA can be proposed.
The values of the Stern–Volmer constants (Ksv) for the compounds were calculated using the linear Stern–Volmer equation (Equation (S2)) and were of the order of 10^5 M^−1 (Table 8), indicating tight binding of the complexes with DNA [61]. The Ksv values for the complexes are in the range found for a number of metal(II)–quinolone complexes, and complex 12 presents the highest Ksv value (Ksv = 7.25(±0.30) × 10^5 M^−1) among the compounds studied. In addition, the EB–DNA quenching constants (kq) for the compounds were calculated with Equation (S3), assuming τo = 23 ns as the fluorescence lifetime. The values of kq (Table 8) are much higher than the value of 10^10 M^−1s^−1, indicating a static mechanism of EB–DNA fluorescence quenching induced by the compounds, which can result from the formation of a new adduct apparently consisting of each complex and DNA [61].
In order to determine and confirm the DNA–binding mode of the compounds, a competitive study with EB as an intercalating marker is performed b y fluorescence emission spectroscopy.
Therefo re, the E B–displacing abilit y of the compounds from its EB –DN A conjugate was ex amined.
The DNA–EB adduct was prepared b y addition of 20 μM EB and 26 μM CT DNA in buffer solution (150 mM NaCl and 15 mM trisodium citrate at pH 7.0). The potential intercalation of the compounds between the DNA–bases was studied by the addition of a certain amount of the compound solution into the EB–DNA adduct solution. The influence of the compounds on the EB – DNA solution was monitored through the changes of the fluorescence emission spectra at excitation […]
wavelen gth (λex ) at 540 nm [S3]. […]
room temperature in solution or in the presence of DNA, under the same experimental conditions (λex = 540 nm). Bearing t hat in mind, the observed quenching of the EB–DNA solution is evidentl y associated to the displacement of EB from its EB–DNA adduct.
The quenching effici ency (KSV) for each compound was assessed according to the Stern – Volmer equation: Io =1+ k τ [Q] = 1+ K [Q], (eq. S2) [S3] where I0 and I = the fluorescence […]
emission intensities of EB–DNA in the absence and presence of the quencher, respectivel y, [Q] = the concentration of the quencher (i.e. compounds). KSV is obtained from t he Stern–Volmer plots b y the slope of the diagram I0/ I versus [Q]. Taking τ0 = 23 ns as the fluorescence lifetime of the EB– DNA s ystem [S5], the EB –DNA quenching constants (k q) of the compounds can be determined accordin g to eq.S3: K SV = kqτo . […]
[S2] Irgi, E.P.; Geromichalos, G.D.; Balala, S.; Kljun, J.; Kalogiannis, S.; Papadopoulos, A.; Turel, I.; Psomas, G. Cobalt(II) complexes with quinolone antimicrobial drug oxolinic acid: […]
[ S 5] Heller, D.P.; Greenstock, C.L. Fluorescence lifetime analysis of DNA intercalated ethidium bromide and quenching by free d ye. Biophys. Chem . 1994, 50, 305–312.

[1] = target: T1, bovine serum albumin (BSA) (Bos taurus, UniProt P02769); test: Albumin binding by tryptophan fluorescence emission quenching; details: for K(BSA), BSA-binding constant / kq(BSA), BSA-quenching constant: BSA 3 μM; for K(BSA), BSA-binding constant: buffer pH 7.0, Scatchard equation; for kq(BSA), BSA-quenching constant: buffer pH 7.0, λexc 295 nm, Stern–Volmer, τ0 = 10^–8 s; for BSA fluorescence, % of the initial fluorescence intensity (I/Io): λem,max = 342 nm, final value of titration (Figure S11)
T1 construct: purchased
Protocol: (§1) Serum albumins (Sas) are the most abundant serum proteins and play a role in the circulatory system, primarily in the transport of drugs and other bioactive small molecules through the bloodstream.
(§2) The SA-quenching constants (kq) for the compounds (Table 5) were calculated with the Stern–Volmer quenching equation (Equations (S2) and (S3)).
(§3) Albumin-binding constants (K) were calculated using the Scatchard equation (Equation (S4)). […]
(§4) S2. Interaction with serum albumins
(§5) The albumin–binding study for the compounds was carried out b y fluorescence emission

[2] = target: T2, human serum albumin (HSA) (Homo sapiens, UniProt P02768); test: as above; details: for K(HSA), HSA-binding constant / kq(HSA), HSA-quenching constant: HSA 3 μM; for K(HSA), HSA-binding constant: buffer pH 7.0, Scatchard equation; for kq(HSA), HSA-quenching constant: buffer pH 7.0, λexc 295 nm, Stern–Volmer, τ0 = 10^–8 s; for HSA fluorescence, % of the initial fluorescence intensity (I/Io): λem,max = 351 nm, final value of titration (Figure S10)
T2 construct: purchased
Protocol: as §1, §2, §3, §4, §5

[3] = system: Staphylococcus aureus ATCC 6538; test: Antimicrobial activity, MIC determination; assay type: cell-based; details: S. aureus; 24-h incubation, 37°C
Protocol: (§6) The in vitro antimicrobial activity of the compounds was evaluated by determining the minimum inhibitory concentration (MIC) against the Gram-positive microorganisms Staphylococcus aureus ATCC 6538 (S. aureus) and Bacillus subtilis ATCC 6633 (B. subtilis) and the Gram-negative microorganism Xanthomonas campestris ATCC 1395 (X. campestris). The affinity of the compounds for bovine serum albumin (BSA) and human serum albumin (HSA) was studied by fluorescence emission spectroscopy, and the corresponding binding constants were determined. Furthermore, the interaction of the compounds with calf-thymus DNA (CT DNA) was investigated to determine the possible mode of interaction by the following methods: (i) UV–vis spectroscopy (where the DNA-binding constants of the complexes (Kb) were also determined), (ii) DNA-viscosity measurements, (iii) cyclic voltammetry and (iv) competitive DNA-binding studies with the classic intercalator ethidium bromide (EB) performed by fluorescence emission spectroscopy.
(§7) Three bacterial strains, one Gram(−) (X. campestris) and two Gram(+) (S. aureus and B. subtilis), were used in order to test the antimicrobial activity of the compounds.
(§8) The antimicrobial activity of the compounds was evaluated b y determining their respective MIC values towards one Gram–( –) (Xanthomonas campestris ATCC 1395 (X. campestris)) and two Gram–(+) (Staphylococcus aureus ATCC 6538 (S. aureus) and Bacillus subtilis ATCC 6633 (B. subtilis)) bacterial species. Cultures of these microbial strains were grown on a rich selective agar medium and stored at 4°C. The selective media used were Nutrient Agar or Broth for B. subtilis and S. aureus, and Yeast Mold Agar or Broth for X. campestris . Cells picked from the surface of the stored cultures were used to initiate liquid pre–cultures of the same selective medium at an initial turbidity of roughl y 1 McFarland unit. Pre–cultures were incubated for 24 h in a rotar y sh aking incubator and subsequently the y were used to inoculate the test cultures used for the determination of MIC at an initial turbidity of 0.5 McFarland units. The test cultures consisted of Mueller–Hinton broth (Deben Diagnostics Ltd) containing different concentrations of the compounds. Different concentrations were achieved as follows: the compounds were freshly dissolved in DMSO to a concentration of 1 mg/mL and they were diluted with DMSO, using the method of progressive double dilution. Therefore, working solutions with decreasing concentrations of the compounds under investigation were achieved. The working solutions were subsequently diluted to the final desired concentration b y addition to the growth medium at a proportion of 2:98. MIC values were determined as the lowest concentrations of the tested compounds that inhibited visible growth of each respective organism after a 24–h incubation [ S1]. Bacterial growth was determined b y measuring the turbidit y of appropriatel y diluted cultures at 600 nm with reference to equall y diluted sterile growth medium and the inhibition achieved was calculated b y comparing the turbidit y of each culture to the average of the turbidit y of three non–inhibited cultures. All test cultures were grown in triplicates and for the determination of MIC, growth had to be inhibited in at least two cultures of the triplicate. In cubation temperatur e at all stages was 37°C ex cept for X. campestris t h at was cultivated at 28°C [S2]. […]
(§9) The fluorescence spectra of the compounds were recorded under the same experimental conditions and presented a low–intensity emission band in the region 405–410 nm .

[4] = system: Xanthomonas campestris ATCC 1395; test: Antimicrobial activity, MIC determination; assay type: cell-based; details: X. campestris; 24-h incubation, 28°C
Protocol: as §6, §7, §8, §9

[5] = system: Bacillus subtilis ATCC 6633; test: Antimicrobial activity, MIC determination; assay type: cell-based; details: B. subtilis; 24-h incubation, 37°C
Protocol: as §6, §7, §8, §9

T2 sequence (P02768 25-609): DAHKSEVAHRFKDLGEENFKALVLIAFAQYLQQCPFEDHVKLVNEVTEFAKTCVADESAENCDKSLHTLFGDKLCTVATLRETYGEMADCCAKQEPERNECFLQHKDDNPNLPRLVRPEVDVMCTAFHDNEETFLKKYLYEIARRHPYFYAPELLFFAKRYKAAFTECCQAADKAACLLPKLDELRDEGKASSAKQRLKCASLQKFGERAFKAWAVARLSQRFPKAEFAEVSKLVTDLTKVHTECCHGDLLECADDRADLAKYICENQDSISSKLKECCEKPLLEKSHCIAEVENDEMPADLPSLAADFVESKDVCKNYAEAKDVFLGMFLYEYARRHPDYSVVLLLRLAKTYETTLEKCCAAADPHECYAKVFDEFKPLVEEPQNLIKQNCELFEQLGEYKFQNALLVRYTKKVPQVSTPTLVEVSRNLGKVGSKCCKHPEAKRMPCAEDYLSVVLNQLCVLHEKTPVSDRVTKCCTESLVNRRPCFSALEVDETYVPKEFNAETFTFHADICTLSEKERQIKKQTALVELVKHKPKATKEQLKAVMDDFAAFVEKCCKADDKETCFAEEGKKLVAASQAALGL
T1 sequence (P02769 25-607): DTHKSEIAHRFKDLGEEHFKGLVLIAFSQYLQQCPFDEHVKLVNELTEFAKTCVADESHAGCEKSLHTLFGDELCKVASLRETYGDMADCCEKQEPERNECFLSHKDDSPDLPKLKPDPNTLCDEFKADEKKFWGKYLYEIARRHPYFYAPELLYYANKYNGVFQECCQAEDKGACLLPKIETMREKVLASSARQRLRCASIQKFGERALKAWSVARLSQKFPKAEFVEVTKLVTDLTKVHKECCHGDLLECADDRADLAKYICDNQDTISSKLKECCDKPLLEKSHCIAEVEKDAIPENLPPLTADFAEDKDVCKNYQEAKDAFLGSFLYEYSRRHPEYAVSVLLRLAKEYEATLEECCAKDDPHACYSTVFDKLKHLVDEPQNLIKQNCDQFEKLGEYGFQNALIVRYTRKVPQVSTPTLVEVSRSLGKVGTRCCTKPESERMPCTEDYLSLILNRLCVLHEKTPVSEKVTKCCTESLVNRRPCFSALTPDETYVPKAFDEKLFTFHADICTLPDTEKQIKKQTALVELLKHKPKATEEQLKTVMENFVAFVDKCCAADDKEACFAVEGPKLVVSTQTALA

Row | Structure (SMILES) | Ksv, Stern–Volmer constant (EB–DNA adduct (CT DNA)) | ΔI/Io, percentage of EB–DNA fluorescence quenching (EB–DNA adduct (CT DNA)) [%] | EB–DNA relative fluorescence emission intensity, % of the initial (I/Io) (EB–DNA adduct (CT DNA)) [%] | kq, EB–DNA quenching constant (EB–DNA adduct (CT DNA)) | K(BSA), BSA-binding constant [1] | kq(BSA), BSA-quenching constant [1] | BSA fluorescence, % of the initial fluorescence intensity (I/Io) [1] [%] | K(HSA), HSA-binding constant [2] | kq(HSA), HSA-quenching constant [2] | HSA fluorescence, % of the initial fluorescence intensity (I/Io) [2] [%] | MIC [3] [µg/mL] | MIC (values in parentheses) [3] [µM] | MIC [4] [µg/mL] | MIC (values in parentheses) [4] [µM] | MIC [5] [µg/mL] | MIC (values in parentheses) [5] [µM]
1 | CN1CCN(c2c(F)cc3c(=O)c(C(=O)[O-])cn(CCF)c3c2F)CC1.CN1CCN(c2c(F)cc3c(=O)c(C(=O)[O-])cn(CCF)c3c2F)CC1.CO.CO.[Zn+2] [complex 3, [Zn(flrx)2(MeOH)2]] | 6.07(±0.17) × 10^5 M^–1 | 85.9 | 14.1 | 2.64(±0.07) × 10^13 M^−1s^−1 | 1.86(±0.08) × 10^5 M^−1 | 4.55(±0.21) × 10^13 M^−1s^−1 | 10.8 | 6.15(±0.25) × 10^4 M^−1 | 2.26(±0.10) × 10^13 M^−1s^−1 | 19.8 | 8 | 9.2 | 32 | 36.8 | 8 | 9.2
2 | CN1CCN(c2c(F)cc3c(=O)c(C(=O)[O-])cn(CCF)c3c2F)CC1.CN1CCN(c2c(F)cc3c(=O)c(C(=O)[O-])cn(CCF)c3c2F)CC1.[Zn+2].c1ccc(-c2ccccn2)nc1 [complex 12, [Zn(flrx)2(bipy)]] | 7.25(±0.30) × 10^5 M^–1 | 88.6 | 11.4 | 3.15(±0.13) × 10^13 M^−1s^−1 | 7.89(±0.33) × 10^4 M^−1 | 1.74(±0.08) × 10^13 M^−1s^−1 | 14.1 | 1.04(±0.06) × 10^5 M^−1 | 1.24(±0.04) × 10^13 M^−1s^−1 | 25.9 | 8 | 8.3 | 16 | 16.7 | 8 | 8.3
